Source: ChEMBL document CHEMBL1156651, “Viridamides A and B, lipodepsipeptides with antiprotozoal activity from the marine cyanobacterium Oscillatoria nigro-viridis” (J Nat Prod, 2008)
Where a SMILES comes first, the peptide text is derived from it. [ ]: non-standard residue; d: D form. The star is where a group is joined. Hmpa(2S,3S) = CC[C@H](C)[C@H](O)C(=O)O; NMeI = CC[C@H](C)[C@H](NC)C(=O)O; NMeV = CN[C@H](C(=O)O)C(C)C; X1 = C#CCCCC(CCCC(=O)*)OC

Key:
Assay type in all cases: functional, organism-based
Trypanosoma cruzi = assay: Antitrypanosomal activity against Trypanosoma cruzi Tulahuen C4 in vero cells assessed as intracellular growth inhibition of trypomastigote by beta-galactosidase reporter gene assay
Leishmania mexicana = assay: Antileishmanial activity against Leishmania mexicana promastigotes by DNA fluorescence method
Plasmodium falciparum = assay: Antimalarial activity against Plasmodium falciparum

Row | IC50 (Trypanosoma cruzi) | IC50 (Leishmania mexicana) | IC50 (Plasmodium falciparum) | Structure (SMILES)
1 | 10 µM | – | – | CC1CS(=O)(=O)CCN1/N=C/c1ccc([N+](=O)[O-])o1 (stereo not given) [NIFURTIMOX]
2 | – | 0.1 µM | – | C[C@@H]1[C@H](O)[C@@H](C)/C=C/C=C/C=C/C=C/C=C/C=C/C=C/[C@H](O[C@@H]2O[C@H](C)[C@@H](O)[C@H](N)[C@@H]2O)C[C@@H]2O[C@](O)(C[C@@H](O)C[C@@H](O)[C@H](O)CC[C@@H](O)C[C@@H](O)CC(=O)O[C@H]1C)C[C@H](O)[C@H]2C(=O)O [AMPHOTERICIN B]
3 | 1.1 µM | 1.5 µM | 5.8 µM | C#CCCCC(CCCC(=O)N(C)[C@H](C(=O)N[C@H](C(=O)N[C@H](C(=O)N(C)[C@H](C(=O)O[C@H](C(=O)N1CCC[C@H]1C(=O)OC)[C@@H](C)CC)C(C)C)C(C)C)C(C)C)[C@@H](C)CC)OC (stereo partly drawn) [VIRIDAMIDE A] (X1-[NMeI]VV[NMeV][Hmpa(2S,3S)]P-OMe)
